Like-named read-outs stand apart in the source and are kept apart here.
How the values were obtained:
[1] = target: T1, PmSiaT (Proteus mirabilis, UniProt B4EZY7); test: nanoDSF thermal shift assay, PmSiaT; format: binding; conditions: for Average 1 / Average 2 / Average 3 / Replicate 1 / Replicate 2 / Replicate 3: PmSiaT Tm; for Average 1: average of experiment 1; for Average 2: average of experiment 2; for Average 3: average of experiment 3; for Replicate 1: experiment 1, second capillary; for Replicate 1 / Replicate 2 / Replicate 3 / Tm 1 / Tm2 / Tm 3 / Tm average overall / ΔTm at 1250 µM: 1.25 mM; for Replicate 2: experiment 2, second capillary; for Replicate 3: experiment 3, second capillary; for Tm 1: experiment 1, first capillary; for Tm2: experiment 2, first capillary; for Tm 3: experiment 3, first capillary; for Tm average overall / ΔTm at 1250 µM: three experiments; for ΔTm at 1250 µM: vs Neu5Ac, read-out: ΔTm average overall
T1 construct: made in house
T1 sequence (B4EZY7 1-496): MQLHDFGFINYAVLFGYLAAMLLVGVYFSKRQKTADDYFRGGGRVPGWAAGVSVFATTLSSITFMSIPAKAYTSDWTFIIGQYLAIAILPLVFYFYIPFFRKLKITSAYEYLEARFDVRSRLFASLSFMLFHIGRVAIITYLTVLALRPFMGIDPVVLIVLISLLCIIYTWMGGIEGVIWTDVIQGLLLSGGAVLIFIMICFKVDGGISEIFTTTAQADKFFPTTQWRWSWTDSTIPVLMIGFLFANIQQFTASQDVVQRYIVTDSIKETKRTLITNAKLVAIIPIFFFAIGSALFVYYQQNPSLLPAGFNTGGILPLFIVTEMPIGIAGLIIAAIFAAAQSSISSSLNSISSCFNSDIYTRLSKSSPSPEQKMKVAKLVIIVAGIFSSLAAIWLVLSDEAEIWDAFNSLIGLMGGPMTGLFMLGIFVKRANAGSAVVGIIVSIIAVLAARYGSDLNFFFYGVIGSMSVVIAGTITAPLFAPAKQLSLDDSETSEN
Protocol: (§1) Nano-differential scanning fluorimetry (nanoDSF) is a high-throughput method that relies on the thermal stabilization of the folded protein state by a bound ligand.[33]
(§2) The melting points of protein–inhibitor complexes were measured on a Prometheus NT.48 instrument from NanoTemper Technologies. Solutions containing the protein at 2 μM in phosphate buffered saline with 0.0174% (w/v) dodecylmaltoside (DDM) and the ligand at 1.25 mM were loaded onto standard capillaries by NanoTemper. The temperature was increased from 25 to 95 °C at a ramp rate of 1 °C/min. The fluorescence was recorded at 330 and 350 nm and as a ratio of the two wavelengths.
(§3) The intensity ratio and its first derivative were calculated using manufacturer’s software (PR.ThermControl, version 2.1.2).
(§4) The melting temperatures have been measured in 3 separate experiments. In each experiment, two capillaries were included per compound, having therefore 2 technical replicates per experiment. In the table all data is presented. Tm1 and Replicate 1 represent the two replicates of the first experiment. Average 1 is the average between Tm 1 and Replicate 1. ΔTm 1 is the thermal shift when compared to the Tm of Neu5Ac. This is calculated from Average 1. The ΔTm presented in the article are the ΔTm average overall, which represent the overall average of the averages from the three experiments. The standard deviation (SD) is calculated from the […]

[2] = target: SaSiaT (Staphylococcus aureus, UniProt A0A0H2XJ46); test: nanoDSF thermal shift assay, SaSiaT; format: binding; conditions: for Average 1 / Average 2 / Average 3 / Replicate 1 / Replicate 2 / Replicate 3: SaSiaT Tm; for Average 1: average of experiment 1; for Average 2: average of experiment 2; for Average 3: average of experiment 3; for Replicate 1: experiment 1, second capillary; for Replicate 1 / Replicate 2 / Replicate 3 / Tm 1 / Tm2 / Tm 3 / Overall average (Tm): 1.25 mM; for Replicate 2: experiment 2, second capillary; for Replicate 3: experiment 3, second capillary; for Tm 1: experiment 1, first capillary; for Tm2: experiment 2, first capillary; for Tm 3: experiment 3, first capillary; for Overall average (Tm): three experiments
Protocol: as §1, §2, §3, §4

[3] = PmSiaT, experiment 1, vs Neu5Ac, read-out: ΔTm 1
[4] = PmSiaT, experiment 2, vs Neu5Ac, read-out: ΔTm 2
[5] = PmSiaT, experiment 3, vs Neu5Ac, read-out: ΔTm 3

SaSiaT, sequence (A0A0H2XJ46 entry or part of it): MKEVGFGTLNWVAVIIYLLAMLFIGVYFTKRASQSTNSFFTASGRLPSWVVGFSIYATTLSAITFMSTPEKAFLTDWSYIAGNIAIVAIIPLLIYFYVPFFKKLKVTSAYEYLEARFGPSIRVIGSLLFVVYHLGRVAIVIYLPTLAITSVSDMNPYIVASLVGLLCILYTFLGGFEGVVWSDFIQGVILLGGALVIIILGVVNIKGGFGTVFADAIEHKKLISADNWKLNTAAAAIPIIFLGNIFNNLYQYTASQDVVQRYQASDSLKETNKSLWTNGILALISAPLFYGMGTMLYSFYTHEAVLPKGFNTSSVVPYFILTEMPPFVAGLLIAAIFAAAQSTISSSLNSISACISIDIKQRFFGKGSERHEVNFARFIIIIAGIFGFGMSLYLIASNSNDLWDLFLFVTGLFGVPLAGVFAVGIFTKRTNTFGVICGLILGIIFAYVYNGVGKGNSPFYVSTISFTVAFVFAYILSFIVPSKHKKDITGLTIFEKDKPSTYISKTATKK

SMILES	Average 1 [1] [°C]	Average 2 [1] [°C]	Average 3 [1] [°C]	Replicate 1 [1] [°C]	Replicate 2 [1] [°C]	Replicate 3 [1] [°C]	Tm 1 ([1]; PmSiaT) [°C]	Tm2 ([1]; PmSiaT) [°C]	Tm 3 ([1]; PmSiaT) [°C]	Tm average overall ([1]; PmSiaT) [°C]	Average 1 [2] [°C]	Average 2 [2] [°C]	Average 3 [2] [°C]	Replicate 1 [2] [°C]	Replicate 2 [2] [°C]	Replicate 3 [2] [°C]	Tm 1 ([2]; SaSiaT) [°C]	Tm2 ([2]; SaSiaT) [°C]	Tm 3 ([2]; SaSiaT) [°C]	Overall average (Tm) ([2]; SaSiaT) [°C]	other results
CCSCC(O)C(O)C1OC(O)(C(=O)O)CC(O)C1NC(C)=O (stereo not shown) [Compound 8b]	45.9	45.9	46.1	45.9	46.0	46.1	45.8	45.9	46.2	46.0	49.9	48.6	49.8	49.9	48.7	49.6	49.9	48.5	50.0	49.4	ΔTm [1, 3]: -3.1 °C; ΔTm [1, 4]: -3.3 °C; ΔTm [1, 5]: -3.2 °C; ΔTm at 1250 µM ([1]; PmSiaT): -3.2 °C
CC(=O)NC1C(O)CC(O)(C(=O)O)OC1C(O)C(C)O (stereo not shown) [Compound 8f]	46.0	45.9	45.9	46.0	45.9	45.9	46.0	45.8	45.9	45.9	43.1	43.0	42.9	42.9	43.1	43.0	43.2	43.0	42.8	43.0	binding / thermal stabilization in words ([1]; PmSiaT, nanoDSF screen): complete loss of affinity; binding / thermal stabilization in words ([2]; SaSiaT, nanoDSF screen): complete loss of affinity
CSCC(O)C(O)C1OC(O)(C(=O)O)CC(O)C1NC(C)=O (stereo not shown) [Compound 8a]	45.9	46.2	46.1	45.8	46.0	46.0	46.1	46.3	46.2	46.1	51.0	49.2	50.8	50.9	49.2	50.4	51.0	49.3	51.3	50.3	ΔTm [1, 3]: -3.1 °C; ΔTm [1, 4]: -3 °C; ΔTm [1, 5]: -3.2 °C; ΔTm at 1250 µM ([1]; PmSiaT): -3.1 °C
O=C(NC1C(O)CC(O)(C(=O)O)OC1C(O)C(O)CO)c1ccccc1 (stereo not shown) [Compound 6d]	45.2	45.9	45.7	45.2	45.9	45.9	45.1	45.8	45.5	45.6	46.2	45.6	46.0	46.1	45.8	45.6	46.2	45.4	46.4	45.9	ΔTm [1, 3]: -3.8 °C; ΔTm [1, 4]: -3.3 °C; ΔTm [1, 5]: -3.6 °C; ΔTm at 1250 µM ([1]; PmSiaT): -3.6 °C
CC(=O)NC1C(OCc2ccc(Br)cc2)CC(O)(C(=O)O)OC1C(O)C(O)CO (stereo not shown) [Compound 3c]	56.7	55.9	56.0	56.7	56.0	56.1	56.6	55.8	56.0	56.2	54.2	53.5	54.5	54.4	53.5	54.4	54.1	53.5	54.5	54.1	ΔTm [1, 3]: 7.7 °C; ΔTm [1, 4]: 6.7 °C; ΔTm [1, 5]: 6.7 °C; ΔTm at 1250 µM ([1]; PmSiaT): 7 °C
CC(=O)NC1C(O)CC(O)(C(=O)O)OC1C(O)C(O)CCl (stereo not shown) [Compound 8c]	47.7	47.9	48.0	47.8	47.9	48.1	47.6	47.9	47.9	47.9	48.9	49.6	49.7	48.9	49.6	49.6	48.9	49.5	49.8	49.4	ΔTm [1, 3]: -1.3 °C; ΔTm [1, 4]: -1.3 °C; ΔTm [1, 5]: -1.3 °C; ΔTm at 1250 µM ([1]; PmSiaT): -1.3 °C
